Laboratory results: US12583820B2, “Broad spectrum antivirals against coronavirus” (priority 2020, dated 2026)
Read-outs that look alike come from different tables or passages of the source.

How the values were obtained:
[1] = target: T1, 3CLpro of SARS-CoV-2 (Severe acute respiratory syndrome coronavirus 2, UniProt P0DTD1); experiment: biochemical; format: biochemical
T1 construct: The codon-optimized cDNA of full length of 3CLpro of SARS-CoV-2; 6xHis (N); made in house; pET-28a(+) vector (points to E. coli, my inference)

[2] = Nonspecific cytotoxic effects (CC50), CytoTox 96 kit

CC(C)C[C@H](NC(=O)OCC(C)(C)Oc1ccc(Cl)cc1)C(=O)N[C@@H](CC1CCNC1=O)C(O)S(=O)(=O)O (some centres unmarked) [MM-II-43]
IC50 [1]: 240 nM

CC(C)C[C@H](NC(=O)OC(c1ccccc1)C1CCC(F)(F)CC1)C(=O)N[C@H](C=O)C[C@@H]1CCNC1=O (stereo partly drawn) [Compound 15b, (4,4-Difluorocyclohexyl)(phenyl)methyl ((S)-4-methyl-1-oxo-1-(((S)-1-oxo-3-((S)-2-oxopyrrolidin-3-yl)propan-2-yl)amino)pentan-2-yl)carbamate]
CC50 at 72 h [2]: > 100000 nM
IC50 [1]: 100 nM

CC(C)C[C@H](NC(=O)OCc1ccccc1F)C(=O)N[C@@H](C[C@@H]1CCNC1=O)C(O)S(=O)(=O)O (stereo partly drawn) [Compound 17c, Sodium (2S)-2-((S)-2-((((2-fluorobenzyl)oxy)carbonyl)amino)-4-methylpentanamido)-1-hydroxy-3-((S)-2-oxopyrrolidin-3-yl)propane-1-sulfonate]
CC50 at 72 h [2]: > 100000 nM
IC50 [1]: 400 nM

CC(C)C[C@H](NC(=O)OC(C)C1CCC(F)(F)CC1)C(=O)N[C@H](C=O)C[C@@H]1CCNC1=O (stereo partly drawn) [Compound 12b, 1-(4,4-Difluorocyclohexyl)ethyl ((S)-4-methyl-1-oxo-1-(((S)-1-oxo-3-((S)-2-oxopyrrolidin-3-yl)propan-2-yl)amino)pentan-2-yl)carbamate]
CC50 at 72 h [2]: > 100000 nM
IC50 [1]: 210 nM

[2H]C([2H])(OC(=O)N[C@@H](CC(C)C)C(=O)N[C@H](C=O)C[C@@H]1CCNC1=O)c1ccc(F)cc1 [Compound 20b, (4-Fluorophenyl)methyl-d2 ((S)-4-methyl-1-oxo-1-(((S)-1-oxo-3-((S)-2-oxopyrrolidin-3-yl)propan-2-yl)amino)pentan-2-yl)carbamate]
CC50 at 72 h [2]: > 100000 nM

CC(C)C[C@H](NC(=O)OCC1CCC(F)(F)CC1)C(=O)N[C@@H](C[C@@H]1CCNC1=O)C(O)S(=O)(=O)O (stereo partly drawn) [Compound 10c, Sodium (2S)-2-((S)-2-((((4,4-difluorocyclohexyl)methoxy)carbonyl)amino)-4-methylpentanamido)-1-hydroxy-3-((S)-2-oxopyrrolidin-3-yl)propane-1-sulfonate]
CC50 at 72 h [2]: > 100000 nM
IC50 ([1]; read-out: IC50): 450 nM

CC(C)C[C@H](NC(=O)OC1CCC(C)(C)CC1)C(=O)N[C@H](C=O)C[C@@H]1CCNC1=O [Compound 1b, 4,4-Dimethylcyclohexyl ((S)-4-methyl-1-oxo-1-(((S)-1-oxo-3-((S)-2-oxopyrrolidin-3-yl)propan-2-yl)amino)pentan-2-yl)carbamate]
CC50 at 72 h [2]: > 100000 nM
IC50 [1]: 280 nM

CC(C)C[C@H](NC(=O)OCc1c(F)c(F)c(F)c(F)c1F)C(=O)N[C@H](C=O)CC1CCNC1=O (stereo partly drawn) [Compound 21b, (Perfluorophenyl)methyl ((2S)-4-methyl-1-oxo-1-(((2S)-1-oxo-3-(2-oxopyrrolidin-3-yl)propan-2-yl)amino)pentan-2-yl) carbamate]
CC50 at 72 h [2]: > 100000 nM

CC(C)C[C@H](NC(=O)O[C@H]1CC[C@H](C(C)C)CC1)C(=O)N[C@H](C=O)C[C@@H]1CCNC1=O [Compound 2b, (1r,4S)-4-isopropylcyclohexyl ((S)-4-methyl-1-oxo-1-(((S)-1-oxo-3-((S)-2-oxopyrrolidin-3-yl)propan-2-yl)amino)pentan-2-yl)carbamate]
CC50 at 72 h [2]: > 100000 nM
IC50 [1]: 250 nM

CCCC(OC(=O)N[C@@H](CC(C)C)C(=O)N[C@H](C=O)C[C@@H]1CCNC1=O)c1ccccc1 (stereo partly drawn) [Compound 23b, 1-Phenylbutyl ((S)-4-methyl-1-oxo-1-(((S)-1-oxo-3-((S)-2-oxopyrrolidin-3-yl)propan-2-yl)amino)pentan-2-yl)carbamate]
CC50 at 72 h [2]: > 100000 nM
fold more potent than the corresponding 24b/c aldehyde and bisulfite adducts [1]: 27 fold
IC50 ([1]; read-out: IC50 against 3CLpro): 150 nM

CC(C)CC(NC(=O)OCC1C(c2ccccc2)C1(F)F)C(=O)NC(C=O)CC1CCNC1=O (centres unmarked) [GC1269]
IC50 [1]: 140 nM

CC(C)C[C@H](NC(=O)OCc1cccc(F)c1)C(=O)N[C@H](C=O)C[C@@H]1CCNC1=O [Compound 18b, 3-Fluorobenzyl ((S)-4-methyl-1-oxo-1-(((S)-1-oxo-3-((S)-2-oxopyrrolidin-3-yl)propan-2-yl)amino)pentan-2-yl)carbamate]
CC50 at 72 h [2]: > 100000 nM
IC50 [1]: 320 nM

CC(C)CC(NC(=O)OCC1C(c2ccccc2)C1(F)F)C(=O)NC(CC1CCNC1=O)C(O)S(=O)(=O)O (centres unmarked) [GC1270]
IC50 [1]: 160 nM

CC(C)CC(NC(=O)OC1CCC(C(C)C)CC1)C(=O)NC(CC1CCNC1=O)C(O)S(=O)(=O)O [Compound 2c, Sodium (2S)-1-hydroxy-2-((S)-2-(((((1r,4S)-4-isopropylcyclohexyl)oxy)carbonyl)amino)-4-methylpentanamido)-3-((S)-2-oxopyrrolidin-3-yl)propane-1-sulfonate]
CC50 at 72 h [2]: > 100000 nM
IC50 [1]: 230 nM

[2H]C([2H])(OC(=O)N[C@@H](CC(C)C)C(=O)N[C@@H](C[C@@H]1CCNC1=O)C(O)S(=O)(=O)[O-])c1ccc(F)cc1.[Na+] (stereo partly drawn) [Compound 20c, Sodium (2S)-2-((S)-2-((((4-fluorophenyl)methoxy-d2)carbonyl)amino)-4-methylpentan amido)-1-hydroxy-3-((S)-2-oxopyrrolidin-3-yl)propane-1-sulfonate]
CC50 at 72 h [2]: > 100000 nM

CC(C)C[C@H](NC(=O)OCc1ccc(F)cc1)C(=O)N[C@H](C=O)C[C@@H]1CCNC1=O [Compound 19b, 4-Fluorobenzyl ((S)-4-methyl-1-oxo-1-(((S)-1-oxo-3-((S)-2-oxopyrrolidin-3-yl)propan-2-yl)amino)pentan-2-yl)carbamate]
CC50 at 72 h [2]: > 100000 nM

[2H]C([2H])(OC(=O)N[C@@H](CC(C)C)C(=O)N[C@H](C=O)CC1CCNC1=O)C1CCC(F)(F)CC1 (stereo partly drawn) [Compound 11b, (4,4-Difluorocyclohexyl) methyl-d2 ((2S)-4-methyl-1-oxo-1-(((2S)-1-oxo-3-(2-oxopyrrolidin-3-yl)propan-2-yl)amino)pentan-2-yl) carbamate]
CC50 at 72 h [2]: > 100000 nM

CCCC1CCC(OC(=O)NC(CC(C)C)C(=O)NC(C=O)CC2CCNC2=O)CC1 [Compound 3b, (1s,4S)-4-propylcyclohexyl ((S)-4-methyl-1-oxo-1-(((S)-1-oxo-3-((S)-2-oxopyrrolidin-3-yl)propan-2-yl)amino)pentan-2-yl)carbamate]
CC50 at 72 h [2]: > 100000 nM
IC50 [1]: 260 nM

[2H]C([2H])(OC(=O)N[C@@H](CC(C)C)C(=O)N[C@H](C=O)CC1CCNC1=O)c1c(F)c(F)c(F)c(F)c1F (stereo partly drawn) [Compound 22b, (Perfluorophenyl)methyl-d2 ((2S)-4-methyl-1-oxo-1-(((2S)-1-oxo-3-(2-oxopyrrolidin-3-yl)propan-2-yl)amino)pentan-2-yl) carbamate]
CC50 at 72 h [2]: > 100000 nM
IC50 [1]: 630 nM

CC(C)C[C@H](NC(=O)OC(Cc1ccccc1)C1CCC(F)(F)CC1)C(=O)N[C@H](C=O)C[C@@H]1CCNC1=O (stereo partly drawn) [Compound 14b, 1-(4,4-Difluorocyclohexyl)-2-phenylethyl ((S)-4-methyl-1-oxo-1-(((S)-1-oxo-3-((S)-2-oxopyrrolidin-3-yl)propan-2-yl)amino)pentan-2-yl)carbamate]
CC50 at 72 h [2]: > 100000 nM
IC50 [1]: 230 nM

CC(C)C[C@H](NC(=O)OCC(C)(C)Oc1ccc(Cl)cc1)C(=O)N[C@H](C=O)CC1CCNC1=O (some centres unmarked) [MM-II-42]
IC50 [1]: 260 nM

CC(C)C[C@H](NC(=O)OCC1CCC(F)(F)CC1)C(=O)N[C@H](C=O)C[C@@H]1CCNC1=O [Compound 10b, (4,4-Difluorocyclohexyl)methyl ((S)-4-methyl-1-oxo-1-(((S)-1-oxo-3-((S)-2-oxopyrrolidin-3-yl)propan-2-yl)amino)pentan-2-yl)carbamate]
CC50 at 72 h [2]: > 100000 nM
